# Measured values from patent US6011014A, “Peptide T and related peptides in the treatment of inflammation, including multiple sclerosis” (Advanced Immunit, Inc., priority 1998, dated 2000).
# Square brackets hold non-standard residues; d marks the D form. Peptide text beside a SMILES is read from it.
# Key:
# [1] = pharmacokinetics of Peptide T; conditions: following administration in vivo
# Description: Initial research in this area was focused on the CNS for two reasons: a high concentration of CD4 molecules was found on neurons and one of the major effect of HIV infection is the development of neurocognitive dysfunction.
# 1. Macrophages may be more sensitive to Peptide T than are T cells, since T cells receive many more potential activating signals than the CD4/MHC II interaction. Thus macrophages may be down regulated by Peptide T administration on the first day of in vitro culture inhibiting their ability to present mitogens and antigens to T cells. B cells can act as APC in place of macrophages when presenting antigen, but not when presenting mitogens which are antigen non-specific (explaining the results of Table III). Resting B cells are resistant to Peptide T as they are CD4 negative. In the presence of a single dose of Peptide T, they could present antigen to T cells allowing proliferation of PBMC in response to antigen. When Peptide T is given on a daily basis in cultured T cells, which may be less sensitive to the effects of Peptide T, then macrophages may be inhibited. Daily administration of Peptide T in vivo, may not function as it does on a daily basis in vitro, since the half life of Peptide T in vivo is shorter than in vitro. In vitro serum supplements are heat inactivated to destroy proteolytic enzymes which actively degrade Peptide T in vivo. […]
# [2] = tolerability of Peptide T therapy; format: in vivo, human; conditions: patients
# Description: Cyclosporine is an anti-inflammatory drug that inhibits lymphocyte proliferation by inhibiting IL-2 and IFN γ gene transcription by binding to and inactivating cyclophilin, an isomerase required for signal transduction (Halloran et al, Clin. Biochem. 24 3-7 (1991)). […] Cyclosporine induced side effects include renal tubular atrophy, nephrotoxicity, hypertension, hirsutism, gingival hypertrophy, tremors, convulsions and paresthesia (Briggs J.D. Immunol. Lett. 29 89-94 (1991)).
# PBMC = assay: mitogen-induced lymphoproliferation (Example 17, 20); format: cell-based, human; conditions: Con A-induced proliferation measured daily, 10^-9 M; FIG. 3
# Experimental: Concanavalin A (Con A), pokeweed mitogen, (PWM) and phytohaemagglutin-P (PHA-P) were obtained from Sigma Chemical Co. (St. Louis, Mo., U.S.A.). Peptide T was synthesised by Carlbiotech Ltd (Copenhagen, Denmark) and supplied as the chloride salt at 8.5 mg/ml in 0.9% benzyl alcohol as a preservative and was stored at 4° C. Peptide T was diluted to working solutions in culture medium (RPMI). Dilute solutions of Peptide T were prepared fresh from stock Peptide T for each experiment. ^3 H-thymidine (5 Ci/mmol) was obtained from Amersham.
# Isolation of PBMC: Whole blood from healthy, adult volunteers was drawn into heparin and peripheral blood mononuclear cells (PBMC) isolated by density gradient centrifugation on HISTOPAQUE™ (Sigma Chemical Co). PBMC were removed from the interface, washed three times in RPMI containing gentamycin (100 μg/ml) and resuspended to 1×10^6 PBMC/ml in RPMI containing 10% foetal bovine serum and gentamycin. 10^5 PBMC were cultured in the presence of 100 μl of mitogen suspension in 96 well plates. […] The amount of incorporated ^3 H-thymidine was determined using a BECKMAN™ LS8000 liquid scintillation counter and proliferation expressed as either counts per minute (cpm) or as a proliferation index (PI). […]
# 10^5 PBMC were cultured in the presence of PWM, Con A or PHA (see Example 17). […] Data were analysed by two sample ANOVA using 95% confidence limits.
# [3] = test system: MO/MAC cytotoxicity against K562 target cells; assay: macrophage cytotoxicity assay; format: cell-based, human; conditions: Peptide T added with target cells (step 2) or every day; FIG. 7
# Experimental: The MO/MAC cytotoxicity assay is a two step assay. After isolation of adherent cells (mainly MO/MAC) from PBMC, MO/MAC are activated by lymphokines (including IFN gamma and LPS. Subsequent to washing which removes activators, ^3 H-thymidine labelled K562 target cells were added to activated MO/MAC and incubated for 3 days. The degree of cytotoxicity was proportional to the amount of radioactive label released into the culture supernatant, is shown in the following scheme: […]
# [4] = test system: Mice bearing Meth A ascites tumours; assay: LPS toxicity in Meth A ascites tumour bearing mice; format: in vivo, mouse; conditions: 100 μg LPS s.c. + 1 mg analogue; for % mice surviving 41 hours: LPS + BSA 60; for % mice with diarrhoea at 19 hrs / % mice with exudate at 19 hrs: LPS + BSA 100
# Experimental: Mice bearing Meth A ascites tumours were given 100 μg LPS subcutaneously with either bovine serum albumin (BSA) or peptide T analogue (504 or 505, 1 mg). The number of animals showing signs of LPS toxicity (diarrhoea, exudate from the eyes and general level of activity) in each group was recorded at 19, 24 and 41 hours after injection. At the completion of the experiment the number of surviving animals was recorded (see Table II below) and the survivors bled for later determination of TNF, IL-1 , IL-6 and RNI levels.
# human neutrophils [5] = assay: TNF-induced neutrophil chemiluminescence; format: cell-based; conditions: FIG. 13
# Experimental: (§1) Neutrophils were isolated from whole blood from healthy blood donors. Separation was achieved by the rapid-single-step method of centrifugation of whole blood on FICOLL-HYPAQUE™. These were >99% viable and usually >98% pure.
# TNF was a recombinant product produced in E. coli. Peptide T and analogue 505 (D-Ser-Ser-D-Thr-Thr-D-Thr-Thr-Tyr-D-Thr) were resuspended in Hank's Balanced Salt Solution (HBSS).
# (§2) To 100 μl of 500-1000 U/ml of TNF was added 10 μl of peptide and after 5 min 100 μl of 1×10^7 neutrophils/ml was added. The cells further incubated at 37° C. /20 min and then tested for chemiluminescence activity. In some cases an agonist such as fMLP (10^-7 M) was added. Chemiluminescence was measured in a luminometer (LKB). The results for Peptide T are presented in FIG. 12 as peak rate of CL release. Lucigenin-dependent chemiluminescence was measured: this represents superoxide measurement. In another set of experiments the effects of analogue 505 on the LPS-induced neutrophil chemiluminescence were examined. In this case the LPS was essentially substituted for the TNF. The concentration of LPS was 0.005 μg/ml.
# human neutrophils [6] = assay: LPS-induced neutrophil chemiluminescence; format: cell-based; conditions: LPS 0.005 μg/ml; FIG. 14
# Experimental: as §1, §2
SMILES,peak plasma concentrations [1] [nM],side effects attributable to Peptide T therapy [2],cytotoxicity for responding lymphocytes (PBMC),cytotoxicity of activated MO/MAC [3],% mice surviving 41 hours [4] [%],% mice with diarrhoea at 19 hrs [4] [%],% mice with exudate at 19 hrs [4] [%],TNF priming and activation of human neutrophils (chemiluminescence) (human neutrophils [5]),LPS activation of human neutrophils (chemiluminescence) (human neutrophils [6])
"C[C@@H](N)C(=O)N[C@@H](CO)C(=O)N[C@H](C(=O)N[C@H](C(=O)N[C@H](C(=O)N[C@@H](CC(N)=O)C(=O)N[C@@H](Cc1ccc(O)cc1)C(=O)N[C@H](C(N)=O)[C@@H](C)O)[C@@H](C)O)[C@@H](C)O)[C@@H](C)O [Peptide T, D-Ala-Ser-Thr-Thr-Thr-Asn-Tyr-Thr-Amide]",55,no significant side effects,not cytotoxic,inhibit the cytotoxicity,,,,,
"C[C@H](O)[C@@H](NC(=O)[C@H](Cc1ccc(O)cc1)NC(=O)[C@H](CC(N)=O)NC(=O)[C@H](NC(=O)[C@@H](NC(=O)[C@H](NC(=O)[C@H](CO)NC(=O)[C@@H](C)N)[C@H](C)O)[C@@H](C)O)[C@H](C)O)C(N)=O [compound 504, H-D-Ala-Ser-D-Thr-Thr-D-Thr-Asn-Tyr-D-Thr-NH2]",,,,,100,40,60,,
"C[C@H](O)[C@@H](NC(=O)[C@H](Cc1ccc(O)cc1)NC(=O)[C@@H](NC(=O)[C@H](NC(=O)[C@@H](NC(=O)[C@H](NC(=O)[C@H](CO)NC(=O)[C@H](N)CO)[C@H](C)O)[C@@H](C)O)[C@H](C)O)[C@@H](C)O)C(N)=O [compound 505, H-D-Ser-Ser-D-Thr-Thr-D-Thr-Thr-Tyr-D-Thr-NH2] (H-[dS]S[dT]T[dT]TY[dT]-NH2)",,,,,100,40,20,inhibits TNF priming and activation of human neutrophils,inhibits LPS activation of human neutrophils
